Literature values as cited in US20030235609A1, “Use of cholinesterase antagonists to treat insulin resistance” (priority 2002, published 2003).

Test system: muscarinic receptor
Details: cats

Compound | Dose achieving a similar degree of insulin resistance | Dose required to produce a full insulin resistance (administered into the portal vein)
CN1CCN(CC(=O)N2c3ccccc3C(=O)Nc3cccnc32)CC1 [pirenzepine] | 10^7 mmol/kg | –
COc1ccccc1CNCCCCCCNCCCCCCCCNCCCCCCNCc1ccccc1OC [methoctramine] | – | 10^−6 μmol/kg
